Target: T1, human mGluR5a receptor (Homo sapiens, UniProt P41594)
T1 construct: cDNA subcloned into pcDNA3.1(-)
Assay: Cell-based functional Ca2+ mobilization assay (FDSS), potentiation of glutamate EC20 response
Conditions: for pEC50 / EC50: HEK cells transfected with human mGluR5 (H10H or H12H), in presence of EC20 glutamate; for EC50: read-out: EC50; for Emax (%) / Emax: maximum % effect in concentration-response curve, as percent of response to maximally effective glutamate
Experimental: Human embryonic kidney (HEK) cells transfected with rat mGluR5 were plated in clear bottom assay plates for assay in a Functional Drug Screening System (FDSS). In the alternative assay, HEK cells transfected with human mGluR5 were plated for assay in the FDSS. In some cases the HEK cells transfected with human mGluR5 were the H10H cell line. Alternatively, the HEK cells transfected with human mGluR5 were the H12H cell line. […] The cells were loaded with a Ca^2+-sensitive fluorescent dye (e.g., Fluo-4), and the plates were washed and placed in the FDSS instrument. After establishment of a fluorescence baseline for twelve seconds, the compounds of the present invention were added to the cells, and the response in cells was measured. Alternatively, in various further aspects, after establishment of a fluorescence baseline for about three seconds, the compounds of the present invention were added to the cells, and the response in cells was measured. Five minutes later, an mGluR5 agonist (e.g., glutamate, 3,5-dihydroxyphenylglycine, or quisqualate) was added to the cells, and the response of the cells was measured.
The above described assay operated in two modes. In the first mode, a range of concentrations of the present compounds were added to cells, followed by a single fixed concentration of agonist. If a compound acted as a potentiator, an EC50 value for potentiation and a maximum extent of potentiation by the compound at this concentration of agonist was determined by non-linear curve fitting. In the second mode, several fixed concentrations of the present compounds were added to various wells on a plate, followed by a range of concentrations of agonist for each concentration of present compound; the EC50 values for the agonist at each concentration of compound were determined by non-linear curve fitting. A decrease in the EC50 value of the agonist with increasing concentrations of the present compounds (a leftward shift of the agonist concentration-response curve) is an indication of the degree of mGluR5 potentiation at a given concentration of the present compound. An increase in the EC50 value of the agonist with increasing concentrations of the present compounds (a rightward shift of the agonist concentration-response curve) is an indication of the degree of mGluR5 antagonism at a given concentration of the present compound. The second mode also indicates whether the present compounds also affect the maximum response to mGluR5 to agonists.
The mGluR5 activity was determined using the metabotropic glutamate receptor activity assays in human embryonic kidney cells as described herein, wherein the human embryonic kidney cells were transfected with human mGluR5. The compounds in Table 1 were synthesized with methods identical or analogous to those shown herein. The requisite starting materials were commercially available, described in the literature, or readily synthesized by one skilled in the art of organic synthesis. The compound number given in Table I corresponds to the compound number in Table II and the structure given therein.
Human mGluR5a cDNA in pCMV6-XL6 mammalian expression plasmid was purchased from OriGene Technologies, Inc. (catalogue number SC326357) and subcloned into pcDNA3.1(−). Human embryonic kidney (HEK) 293A cells were then transfected with human mGluR5a pcDNA3.1(−) using LipofectAmine-2000 (Invitrogen) and monoclones were selected and tested for functional response using a Ca^2+ mobilization assay. Monoclones were named for the species (“H” for human) plus the location on the plate (e.g. “10H”).
HEK cells transfected with the human mGluR5a receptor (H10H or H12H cell line) were plated at 15,000 cells/well in clear-bottomed poly-D-lysine-coated assay plates (BD Falcon) in glutamate-glutamine-free growth medium and incubated overnight at 37° C. and 5% CO2.

T1 sequence (P41594 21-1180 isoform P41594-2 limits assumed): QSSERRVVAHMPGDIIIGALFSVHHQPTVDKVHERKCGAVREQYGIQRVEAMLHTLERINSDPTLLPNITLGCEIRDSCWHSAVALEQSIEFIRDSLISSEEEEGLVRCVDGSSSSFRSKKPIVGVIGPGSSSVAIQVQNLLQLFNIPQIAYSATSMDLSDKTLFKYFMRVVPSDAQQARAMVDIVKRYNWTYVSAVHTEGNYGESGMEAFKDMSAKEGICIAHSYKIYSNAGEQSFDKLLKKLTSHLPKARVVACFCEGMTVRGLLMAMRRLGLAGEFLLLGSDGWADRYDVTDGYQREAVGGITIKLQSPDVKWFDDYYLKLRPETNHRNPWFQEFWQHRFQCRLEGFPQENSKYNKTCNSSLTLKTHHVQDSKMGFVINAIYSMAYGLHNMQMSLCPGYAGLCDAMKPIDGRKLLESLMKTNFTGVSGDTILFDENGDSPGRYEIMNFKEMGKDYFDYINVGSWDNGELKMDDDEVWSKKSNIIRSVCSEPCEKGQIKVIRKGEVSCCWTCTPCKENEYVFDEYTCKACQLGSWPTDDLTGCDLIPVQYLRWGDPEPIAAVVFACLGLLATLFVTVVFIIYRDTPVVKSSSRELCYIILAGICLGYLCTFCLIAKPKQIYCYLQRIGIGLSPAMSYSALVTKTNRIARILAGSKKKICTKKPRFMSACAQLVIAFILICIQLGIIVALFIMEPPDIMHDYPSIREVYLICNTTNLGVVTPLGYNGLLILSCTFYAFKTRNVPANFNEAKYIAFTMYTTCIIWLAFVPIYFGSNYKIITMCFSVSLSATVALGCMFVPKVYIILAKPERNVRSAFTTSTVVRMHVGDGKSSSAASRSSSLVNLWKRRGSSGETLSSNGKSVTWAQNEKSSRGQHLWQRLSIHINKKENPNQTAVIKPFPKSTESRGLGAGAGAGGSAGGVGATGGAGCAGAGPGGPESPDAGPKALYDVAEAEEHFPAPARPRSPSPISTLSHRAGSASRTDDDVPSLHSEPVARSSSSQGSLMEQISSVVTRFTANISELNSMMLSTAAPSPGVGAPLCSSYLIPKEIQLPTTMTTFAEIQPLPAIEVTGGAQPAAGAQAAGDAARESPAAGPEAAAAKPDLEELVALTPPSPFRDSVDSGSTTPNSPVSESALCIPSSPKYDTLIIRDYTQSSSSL

CC1Cn2nc(COc3ccccc3)cc2C(=O)N1c1ccc(F)cc1 (racemic) [Example 18]
pEC50: 6.79
EC50: 162 nM
Emax (%): 70%

CC1CN(c2ccc(F)cn2)C(=O)c2cc(COc3ccc(F)cc3)nn21 (racemic) [Example 237]
pEC50: 6.70
EC50: 200 nM
Emax (%): 52%

CC1CNC(=O)c2cc(COc3ccccc3)nn21 (racemic) [Example 250]
pEC50: <5.00
EC50: > 10000 nM
Emax (%): 52%

CC(Oc1ccccc1)c1cc2n(n1)CCN(CC1CC1)C2=O (racemic) [Example 257]
pEC50: <4.52
EC50: > 30200 nM
Emax (%): 25%

CC(Oc1ccccc1)c1cc2n(n1)CCN(c1ccc(F)cc1)C2=O (racemic) [Example 258]
pEC50: <5.00
EC50: > 10000 nM
Emax (%): 65%

O=C1c2cc(COc3ccccc3)nn2C(CO)CN1c1ccc(F)cc1 (racemic) [Example 263]
pEC50: 5.92
EC50: 1200 nM
Emax (%): 87%

O=C1c2cc(COc3ccccc3)nn2C(CF)CN1c1ccc(F)cc1 (racemic) [Example 264]
pEC50: 6.95
EC50: 112 nM
Emax (%): 63%

O=C1c2cc(COc3ccccc3)nn2C(F)CN1c1ccc(F)cc1 (racemic) [Example 271]
pEC50: 7.05
EC50: 89 nM
Emax (%): 66%

CC1CN(CC2CC2)C(=O)c2cc(COc3ccccc3)nn21 (single isomer, unassigned) [Example 128]
pEC50: 6.85
EC50: 141 nM
Emax (%): 66%

CC1CN(CC2CC2)C(=O)c2cc(COc3ccccc3)nn21 (single isomer, unassigned) [Example 129]
pEC50: <4.52
EC50: > 30200 nM
Emax (%): 21%

CC1CN(c2ccc(F)cc2)C(=O)c2cc(COc3ccccc3)nn21 (single isomer, unassigned) [Example 130]
pEC50: 7.08
EC50: 83 nM
Emax (%): 71%

CC1CN(c2ccc(F)cn2)C(=O)c2cc(COc3ccccc3)nn21 (single isomer, unassigned) [Example 132]
pEC50: 7.00
EC50: 100 nM
Emax (%): 68%

Cc1nc(N2CC(C)n3nc(COc4ccccc4)cc3C2=O)ccc1F (single isomer, unassigned) [Example 135]
pEC50: 7.00
EC50: 100 nM
Emax (%): 56%

CC1CN(c2ccc(F)cc2)C(=O)c2cc(COc3ccc(F)cc3)nn21 (single isomer, unassigned) [Example 238]
pEC50: 6.87
EC50: 135 nM
Emax (%): 67%

CC1CN(c2ccc(F)cc2)C(=O)c2cc(COc3cccc(F)c3)nn21 (single isomer, unassigned) [Example 239]
pEC50: 7.21
EC50: 62 nM
Emax (%): 72%

CC1CN(c2ccc(F)cc2)C(=O)c2cc(COc3ccccn3)nn21 (single isomer, unassigned) [Example 240]
pEC50: <4.52
EC50: > 30200 nM
Emax (%): 23%

O=C1c2cc(COc3ccccc3)nn2C(F)CN1c1ccc(F)cc1 (single isomer, unassigned) [Example 272]
pEC50: 7.04
EC50: 91 nM
Emax (%): 69%

O=C1c2cc(COc3ccccc3)nn2C(F)CN1c1ccc(F)cc1 (single isomer, unassigned) [Example 273]
pEC50: 6.97
EC50: 107 nM
Emax (%): 68%

Cc1nc2cc(N3CC(C)n4nc(COc5ccccc5)cc4C3=O)ccc2s1 (single isomer, unassigned) [Example 376]
pEC50: 7.12
EC50: 75 nM
Emax (%): 60%

O=C1NCCn2nc(COc3ccccc3)cc21 [Example 1]
pEC50: 5.65
EC50: 2240 nM
Emax (%): 69%

CN1CCn2nc(COc3ccccc3)cc2C1=O [Example 2]
pEC50: 5.87
EC50: 1350 nM
Emax (%): 72%

O=C1c2cc(COc3ccccc3)nn2CCN1c1ccc(F)cc1F [Example 3]
pEC50: 6.94
EC50: 115 nM
Emax (%): 101%

O=c1c2nc(COc3ccccc3)nn2ccn1-c1ccc(F)cc1 [Example 4]
EC50: 617 nM
Emax: 52%

O=C1c2nc(COc3ccccc3)nn2CCN1c1ccc(F)cc1 [Example 5]
pEC50: 5.59
EC50: 2570 nM
Emax (%): 73%

O=C1c2cc(COc3ccccc3)nn2CCN1c1ccc(F)cc1 [Example 6]
pEC50: 7.14
EC50: 72 nM
Emax (%): 82%

O=C1c2cc(COc3ccccc3)nn2CCN1c1ccc(F)cn1 [Example 11]
pEC50: 6.81
EC50: 155 nM
Emax (%): 79%

O=C1c2cc(COc3ccccc3)nn2CCN1c1ccccn1 [Example 12]
pEC50: 6.06
EC50: 871 nM
Emax (%): 69%

O=C1c2cc(COc3ccccc3)nn2CCN1c1cccnc1 [Example 13]
pEC50: 5.73
EC50: 1860 nM
Emax (%): 64%

Cc1ccc(N2CCn3nc(COc4ccccc4)cc3C2=O)nc1 [Example 16]
pEC50: 6.68
EC50: 209 nM
Emax (%): 76%

CC(C)CN1CCn2nc(COc3ccccc3)cc2C1=O [Example 26]
pEC50: 6.98
EC50: 105 nM
Emax (%): 75%

O=C1c2cc(COc3ccccc3)nn2CCN1c1ccncc1F [Example 29]
pEC50: 6.24
EC50: 575 nM
Emax (%): 80%

Cc1cccnc1N1CCn2nc(COc3ccccc3)cc2C1=O [Example 30]
EC50: 537 nM
Emax: 75%

Cc1ccncc1N1CCn2nc(COc3ccccc3)cc2C1=O [Example 32]
pEC50: 6.13
EC50: 741 nM
Emax (%): 74%

Cn1ccn2nc(COc3ccccc3)cc2c1=O [Example 37]
EC50: 2070 nM
Emax: 74%

Cc1cccc(N2CCn3nc(COc4ccccc4)cc3C2=O)c1 [Example 48]
pEC50: 7.09
EC50: 81 nM
Emax (%): 65%

Cc1ccc(N2CCn3nc(COc4ccccc4)cc3C2=O)cc1 [Example 49]
pEC50: 7.09
EC50: 81 nM
Emax (%): 64%

COc1ccc(N2CCn3nc(COc4ccccc4)cc3C2=O)cc1 [Example 50]
pEC50: 6.92
EC50: 120 nM
Emax (%): 58%

COc1cc(N2CCn3nc(COc4ccccc4)cc3C2=O)ccc1F [Example 51]
pEC50: 7.26
EC50: 55 nM
Emax (%): 61%

Cc1cc(N2CCn3nc(COc4ccccc4)cc3C2=O)ccc1F [Example 52]
pEC50: 7.58
EC50: 26 nM
Emax (%): 68%

Cc1cccc(N2CCn3nc(COc4ccccc4)cc3C2=O)c1C [Example 56]
pEC50: 7.62
EC50: 24 nM
Emax (%): 69%

CCOc1ccccc1N1CCn2nc(COc3ccccc3)cc2C1=O [Example 57]
pEC50: 6.82
EC50: 150 nM
Emax (%): 67%

COc1ccc(N2CCn3nc(COc4ccccc4)cc3C2=O)cc1F [Example 58]
pEC50: 6.92
EC50: 120 nM
Emax (%): 58%

Cc1cc(F)ccc1N1CCn2nc(COc3ccccc3)cc2C1=O [Example 60]
pEC50: 7.40
EC50: 40 nM
Emax (%): 66%

Reference: patent publication US8592422B2, “Bicyclic triazole and pyrazole lactams as allosteric modulators of mGluR5 receptors” (Vanderbilt University, priority 2010, dated 2013)
